We go through 21 compounds from ChEMBL document CHEMBL4177558, “Rapid, microwave-accelerated synthesis and anti-osteoporosis activities evaluation of Morusin scaffolds and Morusignin L scaffolds” (2017).

The source made the active and inactive calls. No cut-off for these calls is given here.

For test [1], the system named is MC3T3-E1. The test can be described thus: Induction of osteoblast proliferation in mouse MC3T3-E1 cells assessed as growth rate relative to untreated control at 10^-5 mol/L after 48 hrs by MTT assay. Type of test: functional. The settings on record: MC3T3-E1, 48 h, read-out: Activity. On the technique in general: Tetrazolium assays rely on reduction of a dye to a coloured formazan, in cell work by metabolically active cells.

The test system of test [2] is MC3T3-E1. The test can be described thus: Induction of osteoblast proliferation in mouse MC3T3-E1 cells assessed a growth rate relative to untreated control at 10^-6 mol/L after 48 hrs by MTT assay. Type of test: functional.
Test [3] concerns MC3T3-E1. As to the kind of experiment: Induction of osteoblast proliferation in mouse MC3T3-E1 cells assessed a growth rate relative to untreated control at 10^-7 mol/L after 48 hrs by MTT assay. Type of test: functional.
Test [4] concerns MC3T3-E1. The test can be described thus: Induction of osteoblast proliferation in mouse MC3T3-E1 cells assessed a growth rate relative to untreated control at 10^-8 mol/L after 48 hrs by MTT assay. The class given is functional.
For test [5], the system named is Osteoclast. As to the kind of experiment: Anti-osteoporotic activity assessed as osteoclast differentiation in rabbit bone marrow-derived osteoclast at 1 x 10^-5 mol/L after 8 days by TRAP staining-based phase-contrast microscopic method. The settings on record: Oryctolagus cuniculus. The class given is functional, cell-based.
The subject of test [6] is Bone. The test can be described thus: Anti-osteoporotic activity in bovine bone assessed as bone resorption of osteoclast at 1 x 10^-5 mol/L after 8 days by toluidine blue staining-based method. The conditions noted are these: Bos taurus; Bone element. Type of test: functional, tissue-based.
Test [7] has as its system Bone. As to the kind of experiment: Anti-osteoporotic activity in bovine bone assessed as bone resorption of osteoclast at 1 x 10^-8 mol/L after 8 days by toluidine blue staining-based method. The conditions noted are these: Bos taurus; Bone element. Type of test: functional, tissue-based.
For test [8], the system named is Osteoclast. The test can be described thus: Inhibition of New Zealand white rabbit bone marrow-derived osteoclast differentiation assessed as reduction in TRAP activity in at 1 x 10^-5 mol/L measured on day 8 post dose by StrACP assay. Type of test: functional, cell-based. The settings on record: Oryctolagus cuniculus.
Test [9] relates to Osteoclast. As to the kind of experiment: Inhibition of New Zealand white rabbit bone marrow-derived osteoclast differentiation assessed as reduction in TRAP positive cells at 1 x 10^-5 to 1 x 10^-8 mol/L measured on day 8 post dose by leukocyte acid phosphatase-staining based phase contrast microscopy. The settings on record: Oryctolagus cuniculus. Type of test: functional, cell-based.

Test [10] relates to Osteoclast. As to the kind of experiment: Inhibition of New Zealand white rabbit bone marrow-derived osteoclast differentiation assessed as reduction in TRAP activity in at 1 x 10^-6 to 1 x 10^-8 mol/L measured on day 8 post dose by StrACP assay. Type of test: functional, cell-based. The settings on record: Oryctolagus cuniculus.

Consider `CC(C)(O)CCc1c(-c2ccccc2Br)oc2c3c(cc(O)c2c1=O)OC(C)(C)C=C3`, for which, in [1], the growth at 10 µM stood at 2.6%. Moreover, the Activity is reported as 0.33% in test [2], 4.22% in test [3] and 3.41% in test [4].

`CC(O)CCc1c(-c2ccccc2Br)oc2cc3c(c(O)c2c1=O)C=CC(C)(C)O3` (centres undefined): in test [1], the growth at 10 µM was determined as 10.5%. Also, the Activity in test [2] is recorded as 2.8%; in test [3], 2.87%; in [4], -0.52%.

`CC1(C)C=Cc2c(cc3oc(-c4ccccc4Br)c(CCC(C)(O)c4ccccc4)c(=O)c3c2O)O1` (centres undefined): in test [1], the growth at 10 µM was 12.1%. For the same compound, the figures for the Activity in [2], in [3] and in [4] were 17.66%, 6.08% and 10.13%, respectively.

As for `CC(C)(O)CCc1c(-c2ccccc2Cl)oc2c3c(cc(O)c2c1=O)OC(C)(C)C=C3`, in [1], the growth at 10 µM is 4.29%. The Activity was found to be 2.97% in test [2], 1.78% in [3] and 3.08% in [4].

In the case of `CC(O)CCc1c(-c2ccccc2Br)oc2c3c(cc(O)c2c1=O)OC(C)(C)C=C3` (centres undefined), in test [1], the growth at 10 µM came out at 19.5%. The Activity in test [2] was found to be 4.94%; in test [3], 6.7%; in test [4], 7.02%.

Consider `CC1(C)C=Cc2c(cc(O)c3c(=O)c(CCC(C)(O)c4ccc(F)cc4)c(-c4ccccc4Cl)oc23)O1` (centres undefined), for which the growth at 10 µM in [1] turned out to be 15.9%. Further, the Activity came out at 6.35% in test [2], 6.89% in [3] and 6.02% in test [4].

Turning to `CC1(C)C=Cc2c(cc(O)c3c(=O)c(CCC(C)(O)c4ccc(F)cc4)c(-c4ccccc4Br)oc23)O1` (centres undefined), the growth at 10 µM in test [1] amounted to 17.2%. The Activity in test [2] is listed as 7.88%; in [3], 6.42%; in test [4], 4.55%. The outcome in test [5] and in [6] was Active.

As to `CC(=O)CCc1c(-c2ccccc2Cl)oc2c3c(cc(O)c2c1=O)OC(C)(C)C=C3`, in test [1], the growth at 10 µM was 18.3%. Also, the figures for the Activity in test [2], in test [3] and in test [4] were 6.01%, 5.13% and 0.06%, respectively.

Turning to `CC(=O)CCc1c(-c2ccccc2Cl)oc2cc3c(c(O)c2c1=O)C=CC(C)(C)O3`, the growth at 10 µM in test [1] was found to be 7.62%. Also, the Activity came out at 9% in [2], 9.58% in [3] and 0.85% in [4].

Take `CC(C)(O)CCc1c(-c2ccccc2Br)oc2cc3c(c(O)c2c1=O)C=CC(C)(C)O3`: the growth at 10 µM in test [1] was found to be 13.4%. Also, the Activity in test [2] was determined as 7.7%; in [3] it was 4.54%; in [4], 8.54%. Further, the result in [5] and in test [6] was Active.

On to `CC(C)Oc1ccc2c(=O)c(-c3ccccc3)coc2c1` [IPRIFLAVONE], for which the Activity in test [4] is 4.09 - 17.3%. In test [7], the result was Active.

With `CC1(C)C=Cc2c(cc(O)c3c(=O)c(CCC(C)(O)c4ccccc4)c(-c4ccccc4Br)oc23)O1` (centres undefined), in test [1], the growth at 10 µM stood at 21.7%. Also, the Activity in [2] was 16.65%; in [3], 14.74%; in [4] it was 8.56%. Moreover, the result in test [5] and in [6] was Active.

For `CC(=O)CCc1c(-c2ccccc2Br)oc2c3c(cc(O)c2c1=O)OC(C)(C)C=C3`, in test [1], the growth at 10 µM turned out to be 12.8%. The Activity in [2] is recorded as 0.83%; in [3], 0.46%; in test [4] it was 2.42%.

Turning to `CC1(C)C=Cc2c(cc3oc(-c4ccccc4Br)c(CCC(C)(O)c4ccc(F)cc4)c(=O)c3c2O)O1` (centres undefined), in test [1], the growth at 10 µM is -4.88%. In addition, the figures for the Activity in [2], in test [3] and in [4] were 1.49%, 6.25% and 1.91%, respectively.

Take `CC(C)(O)CCc1c(-c2ccccc2Cl)oc2cc3c(c(O)c2c1=O)C=CC(C)(C)O3`: in [1], the growth at 10 µM stood at 14.3%. Besides, the results for the Activity in test [2], in test [3] and in [4] were 4.61%, 3.74% and 6.39%, respectively.

Regarding `CC(C)(O)CCc1c(-c2ccc(O)cc2O)oc2cc3c(c(O)c2c1=O)C=CC(C)(C)O3`, the growth at 10 µM in test [1] is -4.81%. In addition, the Activity in test [2] is listed as 6.69%; in test [3], 5.88%; in [4] it was 2.26%. Further, the inhibition result in test [8] and in test [9] was “Active” throughout. Also, the result in test [6] was Active. The inhibition result in test [10] is “inactive”.

With `CC(C)=CCc1c(-c2ccc(O)cc2O)oc2c3c(cc(O)c2c1=O)OC(C)(C)C=C3` [MORUSIN], the growth at 10 µM in [1] turned out to be 16%. The Activity in test [2] was 9.57%; in test [3] it was 3.88%; in test [4], 7.13%.

With `CC1(C)C=Cc2c(cc3oc(-c4ccccc4Cl)c(CCC(C)(O)c4ccc(F)cc4)c(=O)c3c2O)O1` (centres undefined), the growth at 10 µM in [1] came to 4.88%. Further, the Activity in test [2] stood at 11.03%; in test [3] it was 6.45%; in [4], 6.83%.

With `CC(=O)CCc1c(-c2ccccc2Br)oc2cc3c(c(O)c2c1=O)C=CC(C)(C)O3`, in test [1], the growth at 10 µM worked out at 10.6%. For the same compound, the values for the Activity in test [2], in [3] and in test [4] were 0.88%, 0.79% and 0.38%, respectively.

Take `CC(O)CCc1c(-c2ccccc2Cl)oc2c3c(cc(O)c2c1=O)OC(C)(C)C=C3` (centres undefined): the growth at 10 µM in test [1] was determined as 24%. The Activity came out at 5.18% in test [2], 2.37% in [3] and 0.53% in [4].

Take `CC(O)CCc1c(-c2ccccc2Cl)oc2cc3c(c(O)c2c1=O)C=CC(C)(C)O3` (centres undefined): the growth at 10 µM in [1] amounted to 27.1%. In addition, the results for the Activity in [2], in test [3] and in test [4] were 5.63%, 7.45% and 11.08%, respectively. For the same compound, the outcome in [5] and in test [6] was Active.
